Experiments:
[1] = test system: TNFα-induced IL-8 production; assay: Inhibition of TNFα-induced IL-8 production in human monocytes; type: cell-based; conditions: Monocyte, 18 h
Method: Venous blood from healthy donors was collected by venupuncture into sodium/heparin containing tubes (BD Biosciences). Peripheral blood mononuclear cells (PBMC) were isolated by density gradient centrifugation with Ficoll Paque (Amersham Biosciences). Briefly, 10 mL of blood was diluted 1:1 (v/v) with RPMI 1640 (Gibco) and carefully layered onto 20 mL Ficoll Paque. Cells were spun down for 30 minutes (min) at 470 g, the PBMC collected, washed once in RPMI 1640 and any remaining contaminating erythrocytes lysed in erythrocyte lysis buffer (1 g/L KHCO3, 8.3 g/L NH4Cl, 0.0372 g/L EDTA). Isolation of monocytes from the PBMC was performed using CD14+ Magnetic MicroBeads (Miltenyi Biotec) according to the manufacturer's instructions. Briefly, PBMC were resuspended in Dulbecco's modified Eagle's medium containing 5% BSA (Sigma) and 2 mM EDTA (Sigma) at 1×10^7 cells/ml. 25 μL of CD14 MicroBeads per 10^7 total cells were incubated for 15 min at room temperature. The magnetic separation was performed using a LS column (Miltenyi Biotec). […]
Human IL-8 was measured in the cell culture supernatants using enzyme-linked immunosorbent assay (ELISA) kits from R&D Systems Ltd. according to the manufacturer's instructions. […] Plates were read at a wavelength of 630 nm with correction at 470 nm.

[2] = target: TNFα and TNF-R (Homo sapiens, UniProt P01375); assay: LC-MS analysis of size exclusion fractions of TNFα, TNF-R and compound; type: binding; conditions: compound added before or after TNFα/TNF-R complex formation
Sequence of TNFα and TNF-R (P01375 77-233 limits assumed): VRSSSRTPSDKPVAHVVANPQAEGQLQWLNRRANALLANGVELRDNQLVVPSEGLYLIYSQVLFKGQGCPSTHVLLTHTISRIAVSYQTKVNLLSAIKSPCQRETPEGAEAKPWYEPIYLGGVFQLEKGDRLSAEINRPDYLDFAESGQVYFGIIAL
Sequence of TNFα and TNF-R (P19438 30-211 partner limits assumed): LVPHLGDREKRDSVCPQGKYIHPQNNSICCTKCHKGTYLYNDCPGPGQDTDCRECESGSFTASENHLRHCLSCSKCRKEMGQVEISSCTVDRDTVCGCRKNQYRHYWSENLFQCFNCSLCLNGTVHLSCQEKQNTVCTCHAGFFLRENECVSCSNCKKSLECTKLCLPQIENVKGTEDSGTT
Method: Fractions from size exclusion chromatographic separation of mixtures of TNFα, TNF-R and the compound of formula (1) were analysed by liquid chromatography-mass spectrometry (LC-MS). Two samples were prepared for size exclusion chromatography.

[3] = target: T1, TNFα binding to the TNF receptor (TNFR-ECD) (Homo sapiens, UniProt P01375); assay: Meso Scale Discovery (MSD) assay of TNFα binding to plate-coated TNFR-ECD; conditions: MSD assay, TNF 2 ng/ml, 5% DMSO; read-out: EC50 (enhanced binding of TNFα to immobilised ECD-TNFR)
T1 construct: purchased R&D Systems
T1 sequence (P01375 77-233 limits assumed): as the sequence (P01375 77-233 limits assumed) above
Method: 384 well uncoated plates (standard binding) Meso Scale Discovery plates (MSD) were coated overnight with the extracellular domain of TNFR (TNFR-ECD) (10 μl, 1 ug/mL in PBS). To ensure even distribution plates were centrifuged at 1000 rpm for 2 minutes. The plates were then sealed and stored at +4° C. overnight.
The wells of the plates were then washed three times in 50 μl phosphate buffered saline pH 6.5 (PB) with 0.05% Tween 20 (wash buffer), and then blocked with 50 μl 2% BSA. The plates were then incubated at room temperature on a shaker (600 rpm) for 2 hours. After this incubation plates were washed (3×50 μl wash buffer per well).
During the blocking incubation, compounds of formulae (1) and (2) were pre-incubated with TNF (R&D Systems) prior to addition to the pre-blocked and washed MSD plates. For a single point assay as shown in FIG. 3A the compounds were assayed at a final concentration of 100 μM (5% final v/v DMSO).
Pre-diluted compounds of formulae (1) and (2) were added at a ratio of 1:1 to 4 ng/mL TNF (final concentration 2 ng/ml), and then incubated at room temperature on a shaker 600 rpm for 1 hour.
10 μl of pre-incubated mixtures of compound of formulae (1) or (2) with TNFα were added to the prepared MSD plate and incubated at room temperature on a shaker for 1 hour.
The plates were then washed with wash buffer (3×50 μl per well). Sulfo-tagged anti-TNF polyclonal antibody was then added to each well and the plates incubated for a further 1.5 hours at room temperature on a shaker.
The plates were then washed (3×50 μl wash buffer per well), followed by the addition of 50 μl MSD Read buffer T plus surfactant (diluted 1 in 2 in H2O) and read on a SECTOR Imager 6000.
For single point assays percentage inhibition was calculated using a control sample without compound.
For EC50s determination results were calculated by standard means using a 4 parameter logistic model (sigmoidal dose response model).

[4] = test system: activation of NF-κB by IL-1β; assay: HEK-293 NF-κB SEAP reporter gene assay, IL-1β counterscreen; type: cell-based; conditions: Homo sapiens, HEK293; HEK-293 reporter cells, IL-1β 0.5 ng/ml
Method: (§1) Stimulation of HEK-293 cells by TNF-alpha leads to activation of the NF-kB pathway. The reporter cell line used to determine TNF alpha activity was purchased from Invivogen. HEK-Blue™ CD40L, is a stable transfectant expressing SEAP (secreted alkaline phosphatase) under the control of the IFN-beta minimal promoter fused to 5 NF-kB binding sites. Secretion of SEAP by these cells is stimulated in a concentration dependent manner by TNF-alpha (0.5 ng/ml), IL-1-beta (0.5 ng/ml) and an activating anti-human TNFR1 antibody (300 ng/ml).
(§2) Compounds were diluted from 10 mM DMSO stocks (final assay concentration 0.3%) to generate a 10 point 3 fold serial dilution curve (30,000 nM to 2 nM final concentration). They were mixed with stimulating ligand for 1 hour in a 384 well microtitre plate. Freshly thawed and washed cells were added to the compound/stimulus mixture and further incubated for 18 hours. SEAP activity was determined in the supernatant using the colorimetric substrate Quanti-Blue™ (Invivogen).
Percentage inhibitions for compound dilutions were calculated between a DMSO control and maximum inhibition (by excess control compound) and an IC50 calculated using xlfit (4 parameter logistic model) in Activity Base.
The specific activity of each compound against the TNF-alpha response was compared to that seen with the counterscreens (IL-1beta and anti-human TNFR1 antibody).

[5] = test system: activation of NF-κB by TNFα; assay: HEK-293 NF-κB SEAP reporter gene assay, TNFα stimulus; type: cell-based; conditions: Homo sapiens, HEK293; HEK-293 reporter cells, TNFα 0.5 ng/ml
Method: as §1
as §2, with “Freshly thawed and washed cells were added to the compound/stimulus mixture and further incubated for 18 hours.” left out
Percentage inhibitions for compound dilutions were calculated between a DMSO control and maximum inhibition (by excess control compound) and an IC50 calculated using xlfit (4 parameter logistic model) in Activity Base. […]
C87 was preincubated with TNFα for 1 hour prior to the addition to HEK-293 cells stably transfected with SEAP under the control of NFκB. […] The assay was incubated overnight before inhibition was measured compared to 100% blocking by a control compound. […]

In the case of `Cc1ccc(C)c(Cn2c(C(O)c3ccncc3)nc3ccccc32)c1` (stereo not drawn) [Compound (1), [1-(2,5-Dimethylbenzyl)-1H-benzimidazol-2-yl](pyridin-4-yl)methanol], the IC50 [1] is reported as 0.454 µM, the “binding to TNFα in the presence of TNF-R” value [2] is reported as “binds to TNFα even in the presence of TNF-R” and the EC50 [3] is reported as 4.6 µM.

In the case of `Cc1ccc(C)c(Cn2c(C(O)c3ccncc3)nc3ccc(-c4cnn(C)c4)cc32)c1` (stereo not drawn) [Compound (2), [1-(2,5-Dimethylbenzyl)-6-(1-methyl-1H-pyrazol-4-yl)-1H-benzimidazol-2-yl](pyridin-4-yl)methanol], the IC50 [4] is reported as greater than 30 µM, the EC50 [3] is reported as 3.7 µM and the IC50 [5] is reported as 0.113 µM.
